According to patent publication US20150352108A1, “AMINO-PYRIMIDINE COMPOUNDS AS INHIBITORS OF TBK1 AND/OR IKK EPSILON” (Alzheimer's Institute of America, priority 2009, published 2015):

Assays:
BLyS mRNA, normal PBMCs = assay: Agonist induced BLyS mRNA in PBMCs from healthy donors (qRT-PCR); assay type: cell-based, human; conditions: LMW poly(I:C), serial dilutions
Source text: (§1) To determine if inhibition of IKKε and/or TBK1 modulates nucleic acid agonist induced gene expression, high molecular weight poly(I:C) (MDA5 agonist) and low weight poly(I:C) (RIG-I agonist) were electroporated into human peripheral blood mononuclear cells (PBMCs) obtained from normal donors, or low molecular weight Poly(I:C) was electroporated into PBMCs from donors that have Systemic Lupus Erythematosus (SLE). Induction of IFN-α2, IFN-β, and BLyS mRNA production was monitored by qRT-PCR.
(§2) Human PBMCs were collected from healthy donors using routine laboratory procedures. PBMCs from SLE patients were purchased from Astarte Biologics (Redmond, Wash.). The PBMCs were electroporated using Nucleofector® Kit V (Lonza, Walkersville, Md.) with 0.4 ug/mL of high molecular weight poly (I:C) (InvivoGen, San Diego, Calif.) or 0.4 ug/mL low molecular weight poly (I:C) (InvivoGen, San Diego, Calif.) and seeded into wells containing serial dilutions of Example Compound 5 (0.1% final DMSO concentration). […] RNA was quantitated using Quant-iT™ RiboGreen® RNA Assay Kit (Invitrogen, Carlsbad, Calif.). Reverse transcription and real-time PCR were performed using the QuantiTect Probe RT-PCR Kit (Qiagen, Germantown, Md.) and the 7300 Real-Time PCR System (Applied Biosytems, Foster City, Calif.). […]

BLyS mRNA, SLE PBMCs = assay: Agonist induced BLyS mRNA in PBMCs from SLE patients (qRT-PCR); assay type: cell-based, human; conditions: LMW poly(I:C), serial dilutions
Source text: as §1, §2

TBK1 = target: T1, TBK1 (Homo sapiens, UniProt Q9UHD2); assay: In-vitro TBK1 kinase assay ([γ33]ATP filter-plate); assay type: biochemical; conditions: text bins; read-out: IC50 for inhibition of the kinase activity of TBK1
T1 construct: His-tag; made in house; host or cells: Sf9 insect cells
T1 sequence (Q9UHD2 1-729): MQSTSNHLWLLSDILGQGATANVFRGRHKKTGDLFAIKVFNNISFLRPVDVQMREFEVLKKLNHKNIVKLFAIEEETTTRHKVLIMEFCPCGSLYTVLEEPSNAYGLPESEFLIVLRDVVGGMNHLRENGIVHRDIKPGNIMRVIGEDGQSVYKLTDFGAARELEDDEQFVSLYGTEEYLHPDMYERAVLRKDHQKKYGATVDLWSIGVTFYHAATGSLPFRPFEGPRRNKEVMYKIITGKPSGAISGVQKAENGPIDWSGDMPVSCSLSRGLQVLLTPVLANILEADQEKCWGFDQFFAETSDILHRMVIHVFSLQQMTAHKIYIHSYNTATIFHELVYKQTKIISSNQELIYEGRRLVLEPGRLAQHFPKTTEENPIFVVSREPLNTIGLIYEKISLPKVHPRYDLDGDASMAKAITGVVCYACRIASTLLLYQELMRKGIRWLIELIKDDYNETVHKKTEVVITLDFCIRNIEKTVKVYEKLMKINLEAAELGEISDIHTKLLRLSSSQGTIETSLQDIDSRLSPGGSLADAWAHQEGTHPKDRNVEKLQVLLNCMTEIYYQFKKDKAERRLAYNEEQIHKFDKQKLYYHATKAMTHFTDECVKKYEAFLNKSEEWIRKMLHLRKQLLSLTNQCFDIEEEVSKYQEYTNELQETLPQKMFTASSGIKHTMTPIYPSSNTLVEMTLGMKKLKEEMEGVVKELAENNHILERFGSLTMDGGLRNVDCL
Outline: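 His-tagged Sf9-expressed kinases at 0.1 or 0.02 μg/ml (TBK1) and 0.1 or 0.015 μg/ml (IKKε) for normal and sensitized formats, with myelin basic protein or casein substrate. ATP was at 2×Km (60 μM TBK1, 32 μM IKKε) plus 0.3 μCi [γ33]ATP. Reactions ran 30-45 min, were captured on P-81 filters, and counts were normalized to DMSO.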

IFN-β1 mRNA, SLE PBMCs = assay: Agonist induced IFN-β1 mRNA in PBMCs from SLE patients (qRT-PCR); assay type: cell-based, human; conditions: LMW poly(I:C), serial dilutions
Source text: as §1, §2

[1] = test system: RANTES production, human fibroblast-like synoviocytes (HFLS-RA); assay: Inhibition of RANTES production by HFLS-RA cells induced with Poly(I:C); assay type: cell-based; conditions: Poly(I:C) induction
Procedure: (§3) HFLS cells (HFLS-RA) isolated from patients with rheumatoid arthritis were obtained from Cell Applications, Inc. (San Diego, Calif.). Cells were seeded in synoviocyte growth medium (Cell Applications, Inc., San Diego, Calif.) and allowed to grow overnight. The following day, media was replaced and cells were treated with varying concentrations of selected compounds according to Formula I (e.g., Example Compound 5) (0.1% final DMSO concentration). Two hours later, cells were induced with 50 µg/mL Poly(I:C) (Sigma-Aldrich, St. Louis, Mo.). Supernatants were collected 20 hours post-induction and used to monitor RANTES and IP-10 levels using DuoSet ELISA kits (Human CXCL10/IP-10 DuoSet & Human CCL5/RANTES DuoSet; R&D Systems, Inc., Minneapolis, Minn.).

IFN-β production = assay: Inhibition of IFN-β production (similar assay to HFLS-RA RANTES/IP-10); assay type: cell-based; conditions: Homo sapiens
Procedure: as §3
Using a similar assay Compound 5 was also found to inhibit production of IFN-β with an IC50 of about 40 nM

IC50 (TBK1): < 10 nM
IC50 (IFN-β production): ~40 nM
SMILES: N#Cc1cc(-c2ccnc(Nc3ccc(N4CCOCC4)cc3)n2)ccc1OC1CCOCC1 [Example 5, 5-(2-{[4-(Morpholin-4-yl)phenyl]amino}pyrimidin-4-yl)-2-(tetrahydro-2H-pyran-4-yloxy)benzaonitrile]
induction of BLyS mRNA (BLyS mRNA, normal PBMCs): potently inhibited
induction of BLyS mRNA (BLyS mRNA, SLE PBMCs): potently inhibited
induction of IFN-β1 mRNA (IFN-β1 mRNA, SLE PBMCs): potently inhibited
IC50 [1]: ~60 nM
